Laboratory results from ChEMBL document CHEMBL5634158, “From garden to lab: C-3 chemical modifications of tomatidine unveil broad-spectrum ATP synthase inhibitors to combat bacterial resistance” (Eur J Med Chem, 2023).
pIC50: −log10 of the molar value.

How the values were obtained:
Escherichia coli [1] = assay: Antibacterial activity against Escherichia coli ATCC 25922 assessed as reduction in microbial growth incubated for 20 hrs under aerobic condition by CLSI based broth microdilution method; assay type: functional
Staphylococcus aureus [2] = assay: Antibacterial activity against Staphylococcus aureus ATCC 29213 assessed as reduction in microbial growth incubated for 20 hrs under aerobic condition by CLSI based broth microdilution method; assay type: functional
Staphylococcus aureus [3] = assay: Antibacterial activity against Staphylococcus aureus ATCC 29213 hemB SCV assessed as reduction in microbial growth incubated for 20 hrs under aerobic condition by CLSI based broth microdilution method; assay type: functional
Escherichia coli [4] = assay: Antibacterial activity against Escherichia coli MC4100 harbouring acrAB mutant assessed as reduction in bacterial growth by CLSI based broth microdilution method; assay type: functional
Escherichia coli [5] = assay: Antibacterial activity against Escherichia coli MC4100 assessed as reduction in bacterial growth by CLSI based broth microdilution method; assay type: functional
[6] = Inhibition of Escherichia coli ATCC 25922 ATP synthase activity preincubated for 30 mins followed by NADH/ADP addition and measured after 60 mins by luciferin/luciferase luminescence assay
Escherichia coli [7] = assay: Antibacterial activity against Escherichia coli MC4100 harbouring lptD mutant assessed as reduction in bacterial growth by CLSI based broth microdilution method; assay type: functional

SMILES: C[C@H]1CC[C@]2(NC1)O[C@H]1C[C@H]3[C@@H]4CC[C@H]5CC(NCCN(C)C)CC[C@]5(C)[C@H]4CC[C@]3(C)[C@H]1[C@@H]2C (mixture of isomers)
- MIC (Escherichia coli [1]): 128 µg/mL
- MIC (Staphylococcus aureus [2]): 8 µg/mL

SMILES: C[C@H]1CC[C@]2(NC1)O[C@H]1C[C@H]3[C@@H]4CC[C@H]5CC(NC[C@H](N)CCc6ccccc6)CC[C@]5(C)[C@H]4CC[C@]3(C)[C@H]1[C@@H]2C (stereo not given in full)
- MIC (Escherichia coli [1]): 32 µg/mL
- MIC (Staphylococcus aureus [2]): 4 µg/mL

SMILES: C[C@H]1CC[C@]2(NC1)O[C@H]1C[C@H]3[C@@H]4CC[C@H]5CC(NC[C@@H](N)Cc6ccc(F)cc6)CC[C@]5(C)[C@H]4CC[C@]3(C)[C@H]1[C@@H]2C (mixture of isomers)
- MIC (Staphylococcus aureus [3]): ≤ 0.25 µg/mL
- MIC (Escherichia coli [1]): 32 µg/mL
- MIC (Staphylococcus aureus [2]): 4 µg/mL

SMILES: C[C@H]1CC[C@]2(NC1)O[C@H]1C[C@H]3[C@@H]4CC[C@H]5CC(NC[C@@H](N)CC6CCCCC6)CC[C@]5(C)[C@H]4CC[C@]3(C)[C@H]1[C@@H]2C (mixture of isomers)
- MIC (Escherichia coli [1]): 16 µg/mL
- MIC (Staphylococcus aureus [2]): 4 µg/mL

SMILES: C[C@H]1CC[C@]2(NC1)O[C@H]1C[C@H]3[C@@H]4CC[C@H]5CC(NCCN6CCCC6)CC[C@]5(C)[C@H]4CC[C@]3(C)[C@H]1[C@@H]2C (mixture of isomers)
- MIC (Escherichia coli [4]): 8 µg/mL
- MIC (Escherichia coli [1]): 64 µg/mL
- MIC (Escherichia coli [5]): 64 µg/mL
- pIC50 [6]: 6.05
- MIC (Escherichia coli [7]): 0.5 µg/mL

SMILES: C[C@H]1CC[C@]2(NC1)O[C@H]1C[C@H]3[C@@H]4CC[C@H]5CC(NCCNS(C)(=O)=O)CC[C@]5(C)[C@H]4CC[C@]3(C)[C@H]1[C@@H]2C (mixture of isomers)
- MIC (Escherichia coli [1]): > 128 µg/mL
- MIC (Staphylococcus aureus [2]): 32 µg/mL

SMILES: C[C@H]1CC[C@]2(NC1)O[C@H]1C[C@H]3[C@@H]4CC[C@H]5CC(NC[C@@H](N)Cc6cccc(C(F)(F)F)c6)CC[C@]5(C)[C@H]4CC[C@]3(C)[C@H]1[C@@H]2C (mixture of isomers)
- MIC (Staphylococcus aureus [3]): 2 µg/mL
- MIC (Escherichia coli [1]): 8 µg/mL
- MIC (Staphylococcus aureus [2]): 5 µg/mL

SMILES: C[C@H]1CC[C@]2(NC1)O[C@H]1C[C@H]3[C@@H]4CC[C@H]5CC(NCCN6CCNC6=O)CC[C@]5(C)[C@H]4CC[C@]3(C)[C@H]1[C@@H]2C (mixture of isomers)
- MIC (Escherichia coli [1]): > 128 µg/mL
- MIC (Staphylococcus aureus [2]): 64 µg/mL

SMILES: C[C@H]1CC[C@]2(NC1)O[C@H]1C[C@H]3[C@@H]4CC[C@H]5CC(NC[C@@H](N)Cc6ccc(C(F)(F)F)cc6)CC[C@]5(C)[C@H]4CC[C@]3(C)[C@H]1[C@@H]2C (mixture of isomers)
- MIC (Staphylococcus aureus [3]): 1 µg/mL
- MIC (Escherichia coli [1]): 8 µg/mL
- MIC (Staphylococcus aureus [2]): 2 µg/mL

SMILES: C[C@H]1CC[C@]2(NC1)O[C@H]1C[C@H]3[C@@H]4CC[C@H]5CC(N[C@H]6CCCC[C@@H]6N)CC[C@]5(C)[C@H]4CC[C@]3(C)[C@H]1[C@@H]2C (mixture of isomers)
- MIC (Escherichia coli [1]): > 128 µg/mL
- MIC (Staphylococcus aureus [2]): 8 µg/mL

SMILES: CCCC(N)(CCC)CNC1CC[C@@]2(C)[C@@H](CC[C@@H]3[C@@H]2CC[C@]2(C)[C@@H]4[C@H](C[C@@H]32)O[C@@]2(CC[C@H](C)CN2)[C@H]4C)C1 (mixture of isomers)
- MIC (Escherichia coli [1]): > 128 µg/mL
- MIC (Staphylococcus aureus [2]): 8 µg/mL

SMILES: C[C@H]1CC[C@]2(NC1)O[C@H]1C[C@H]3[C@@H]4CC[C@H]5CC(N[C@@H]6CCNC6)CC[C@]5(C)[C@H]4CC[C@]3(C)[C@H]1[C@@H]2C (mixture of isomers)
- MIC (Escherichia coli [4]): 32 µg/mL
- MIC (Escherichia coli [1]): 64 µg/mL
- MIC (Escherichia coli [5]): 64 µg/mL
- pIC50 [6]: 5.33
- MIC (Escherichia coli [7]): 32 µg/mL
- MIC (Staphylococcus aureus [2]): 32 µg/mL

SMILES: C[C@H]1CC[C@]2(NC1)O[C@H]1C[C@H]3[C@@H]4CC[C@H]5CC(NC[C@@H](N)Cc6ccc(Cl)cc6Cl)CC[C@]5(C)[C@H]4CC[C@]3(C)[C@H]1[C@@H]2C (mixture of isomers)
- MIC (Staphylococcus aureus [3]): ≤ 0.25 µg/mL
- MIC (Escherichia coli [1]): 8 µg/mL
- MIC (Staphylococcus aureus [2]): 2 µg/mL

SMILES: C[C@H]1CC[C@]2(NC1)O[C@H]1C[C@H]3[C@@H]4CC[C@H]5CC(NC[C@@H](N)Cc6ccc([N+](=O)[O-])cc6)CC[C@]5(C)[C@H]4CC[C@]3(C)[C@H]1[C@@H]2C (mixture of isomers)
- MIC (Escherichia coli [1]): 64 µg/mL
- MIC (Staphylococcus aureus [2]): 2 µg/mL

SMILES: C[C@H]1CC[C@]2(NC1)O[C@H]1C[C@H]3[C@@H]4CC[C@H]5CC(NCc6ccccn6)CC[C@]5(C)[C@H]4CC[C@]3(C)[C@H]1[C@@H]2C (mixture of isomers)
- MIC (Escherichia coli [1]): > 128 µg/mL
- MIC (Staphylococcus aureus [2]): > 128 µg/mL

SMILES: COC(=O)CNC1CC[C@@]2(C)[C@@H](CC[C@@H]3[C@@H]2CC[C@]2(C)[C@@H]4[C@H](C[C@@H]32)O[C@@]2(CC[C@H](C)CN2)[C@H]4C)C1 (mixture of isomers)
- MIC (Escherichia coli [1]): > 128 µg/mL
- MIC (Staphylococcus aureus [2]): > 128 µg/mL

SMILES: C[C@H]1CC[C@]2(NC1)O[C@H]1C[C@H]3[C@@H]4CC[C@H]5CC(NC[C@@H](O)CO)CC[C@]5(C)[C@H]4CC[C@]3(C)[C@H]1[C@@H]2C (mixture of isomers)
- MIC (Escherichia coli [1]): > 128 µg/mL
- MIC (Staphylococcus aureus [2]): 64 µg/mL

SMILES: C[C@H]1CC[C@]2(NC1)O[C@H]1C[C@H]3[C@@H]4CC[C@H]5CC(NC[C@H](N)Cc6ccccc6)CC[C@]5(C)[C@H]4CC[C@]3(C)[C@H]1[C@@H]2C (mixture of isomers)
- MIC (Escherichia coli [1]): 32 µg/mL
- MIC (Staphylococcus aureus [2]): 4 µg/mL

SMILES: C[C@H]1CC[C@]2(NC1)O[C@H]1C[C@H]3[C@@H]4CC[C@H]5CC(NC[C@@H](N)Cc6ccccc6C(F)(F)F)CC[C@]5(C)[C@H]4CC[C@]3(C)[C@H]1[C@@H]2C (mixture of isomers)
- MIC (Staphylococcus aureus [3]): 0.5 µg/mL
- MIC (Escherichia coli [1]): 32 µg/mL
- MIC (Staphylococcus aureus [2]): 2 µg/mL

SMILES: C[C@H]1CC[C@]2(NC1)O[C@H]1C[C@H]3[C@@H]4CC[C@H]5CC(NCCO)CC[C@]5(C)[C@H]4CC[C@]3(C)[C@H]1[C@@H]2C (mixture of isomers)
- MIC (Escherichia coli [1]): > 128 µg/mL
- MIC (Staphylococcus aureus [2]): > 128 µg/mL

SMILES: C[C@H]1CC[C@]2(NC1)O[C@H]1C[C@H]3[C@@H]4CC[C@H]5CC(NCc6ccc(O)cc6)CC[C@]5(C)[C@H]4CC[C@]3(C)[C@H]1[C@@H]2C (mixture of isomers)
- MIC (Escherichia coli [1]): > 128 µg/mL
- MIC (Staphylococcus aureus [2]): 8 µg/mL

SMILES: C[C@H]1CC[C@]2(NC1)O[C@H]1C[C@H]3[C@@H]4CC[C@H]5CC(NC[C@@H](N)Cc6ccncc6)CC[C@]5(C)[C@H]4CC[C@]3(C)[C@H]1[C@@H]2C (mixture of isomers)
- MIC (Escherichia coli [4]): 32 µg/mL
- MIC (Escherichia coli [1]): > 128 µg/mL
- MIC (Escherichia coli [5]): > 128 µg/mL
- pIC50 [6]: 5.82
- MIC (Escherichia coli [7]): 16 µg/mL
- MIC (Staphylococcus aureus [2]): 16 µg/mL

SMILES: C[C@H]1CC[C@]2(NC1)O[C@H]1C[C@H]3[C@@H]4CC[C@H]5CC(NCc6cn(C)cn6)CC[C@]5(C)[C@H]4CC[C@]3(C)[C@H]1[C@@H]2C (mixture of isomers)
- MIC (Escherichia coli [1]): > 128 µg/mL
- MIC (Staphylococcus aureus [2]): 32 µg/mL

SMILES: C[C@H]1CC[C@]2(NC1)O[C@H]1C[C@H]3[C@@H]4CC[C@H]5CC(NCc6ccco6)CC[C@]5(C)[C@H]4CC[C@]3(C)[C@H]1[C@@H]2C (mixture of isomers)
- MIC (Escherichia coli [1]): > 128 µg/mL
- MIC (Staphylococcus aureus [2]): 32 µg/mL

SMILES: C[C@H]1CC[C@]2(NC1)O[C@H]1C[C@H]3[C@@H]4CC[C@H]5CC(NC[C@@H](N)Cc6c[nH]cn6)CC[C@]5(C)[C@H]4CC[C@]3(C)[C@H]1[C@@H]2C (mixture of isomers)
- MIC (Escherichia coli [1]): 32 µg/mL
- MIC (Staphylococcus aureus [2]): 8 µg/mL

SMILES: C[C@H]1CC[C@]2(NC1)O[C@H]1C[C@H]3[C@@H]4CC[C@H]5CC(NC[C@@H](C)N)CC[C@]5(C)[C@H]4CC[C@]3(C)[C@H]1[C@@H]2C (mixture of isomers)
- MIC (Escherichia coli [1]): 64 µg/mL
- MIC (Staphylococcus aureus [2]): 4 µg/mL

SMILES: C[C@H]1CC[C@]2(NC1)O[C@H]1C[C@H]3[C@@H]4CC[C@H]5CC(NC[C@@H](N)Cc6ccccc6Br)CC[C@]5(C)[C@H]4CC[C@]3(C)[C@H]1[C@@H]2C (mixture of isomers)
- MIC (Escherichia coli [1]): 32 µg/mL
- MIC (Staphylococcus aureus [2]): 4 µg/mL

SMILES: C[C@H]1CC[C@]2(NC1)O[C@H]1C[C@H]3[C@@H]4CC[C@H]5CC(NCCNC(=N)N)CC[C@]5(C)[C@H]4CC[C@]3(C)[C@H]1[C@@H]2C (mixture of isomers)
- MIC (Escherichia coli [1]): 64 µg/mL
- MIC (Staphylococcus aureus [2]): 8 µg/mL

SMILES: C[C@H]1CC[C@]2(NC1)O[C@H]1C[C@H]3[C@@H]4CC[C@H]5CC(NC[C@@H](N)Cc6cn(C)c7ccccc67)CC[C@]5(C)[C@H]4CC[C@]3(C)[C@H]1[C@@H]2C (mixture of isomers)
- MIC (Escherichia coli [1]): 8 µg/mL
- MIC (Staphylococcus aureus [2]): 2 µg/mL

SMILES: C[C@H]1CC[C@]2(NC1)O[C@H]1C[C@H]3[C@@H]4CC[C@H]5CC(NC[C@@H](N)Cc6cccc(Br)c6)CC[C@]5(C)[C@H]4CC[C@]3(C)[C@H]1[C@@H]2C (mixture of isomers)
- MIC (Escherichia coli [1]): 8 µg/mL
- MIC (Staphylococcus aureus [2]): 2 µg/mL

SMILES: C[C@H]1CC[C@]2(NC1)O[C@H]1C[C@H]3[C@@H]4CC[C@H]5CC(NC[C@@H](N)Cc6cccnc6)CC[C@]5(C)[C@H]4CC[C@]3(C)[C@H]1[C@@H]2C (mixture of isomers)
- MIC (Escherichia coli [1]): > 128 µg/mL
- MIC (Staphylococcus aureus [2]): 16 µg/mL

SMILES: C[C@H]1CC[C@]2(NC1)O[C@H]1C[C@H]3[C@@H]4CC[C@H]5CC(NC[C@@H](N)C(c6ccccc6)c6ccccc6)CC[C@]5(C)[C@H]4CC[C@]3(C)[C@H]1[C@@H]2C (mixture of isomers)
- MIC (Escherichia coli [1]): > 64 µg/mL
- MIC (Staphylococcus aureus [2]): 4 µg/mL
